A short description of one data set: in vitro. The conditions noted are these: human, NHDF cells (normal human dermal fibroblasts).
In data set [1] the target is T1, ColH-PD (Hathewaya histolytica, UniProt Q46085). Kind of data set: biochemical. The conditions noted are these: 100 μM; read-out: Percent inhibition of ColH-PD. The data set is classed as biochemical, C. histolyticum.
In data set [2] the target is T1, ColH-PD. The data set is classed as biochemical, C. histolyticum.
For a further data set, the target named is T2, MMP-3 (Homo sapiens, UniProt P08254).
T2 construct: catalytic domains of three human MMPs; purchased Sigma-Aldrich
T2 sequence (P08254 100-272 limits assumed): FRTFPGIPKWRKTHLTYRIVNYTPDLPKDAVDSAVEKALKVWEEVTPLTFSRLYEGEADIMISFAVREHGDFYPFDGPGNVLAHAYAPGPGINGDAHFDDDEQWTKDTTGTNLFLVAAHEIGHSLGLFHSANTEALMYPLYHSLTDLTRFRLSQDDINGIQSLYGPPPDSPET
Kind of data set: MMP inhibition assay, MMP-3. Format: biochemical. The protocol:
(§1) To assess the selectivity of the compounds over human MMPs and on other bacterial collagenases, selected compounds were tested against ColG-CU and ColH-PD from C. histolyticum and ColA-CU from B. cereus strain ATCC14579. In addition, the compounds were tested on catalytic domains of three human MMPs, which are characterized by different depths of the S1′ binding pocket (MMP-1 (shallow), −2 (intermediate), and −3 (deep)). They were also tested against other important human off-targets, which are involved in gene expression and the processing of TNF-α; these include HDAC-3, -8, TACE (ADAM-17),[33],[34] and COX-1.
(§2) The MMP inhibition assay (Sigma-Aldrich, Saint Louise, MO) was performed as previously reported and in accordance with the manufacturer’s instructions. The fluorescence signals were measured in a CLARIOstar plate reader (BMG LABTECH, Ortenberg, Germany) at a concentration of 100 μM.

The target in data set [3] is T3, ColQ1-CU (Bacillus cereus, UniProt B9J3S4). The data set is classed as biochemical, B. cereus.
T3 sequence (B9J3S4 94-765 limits assumed): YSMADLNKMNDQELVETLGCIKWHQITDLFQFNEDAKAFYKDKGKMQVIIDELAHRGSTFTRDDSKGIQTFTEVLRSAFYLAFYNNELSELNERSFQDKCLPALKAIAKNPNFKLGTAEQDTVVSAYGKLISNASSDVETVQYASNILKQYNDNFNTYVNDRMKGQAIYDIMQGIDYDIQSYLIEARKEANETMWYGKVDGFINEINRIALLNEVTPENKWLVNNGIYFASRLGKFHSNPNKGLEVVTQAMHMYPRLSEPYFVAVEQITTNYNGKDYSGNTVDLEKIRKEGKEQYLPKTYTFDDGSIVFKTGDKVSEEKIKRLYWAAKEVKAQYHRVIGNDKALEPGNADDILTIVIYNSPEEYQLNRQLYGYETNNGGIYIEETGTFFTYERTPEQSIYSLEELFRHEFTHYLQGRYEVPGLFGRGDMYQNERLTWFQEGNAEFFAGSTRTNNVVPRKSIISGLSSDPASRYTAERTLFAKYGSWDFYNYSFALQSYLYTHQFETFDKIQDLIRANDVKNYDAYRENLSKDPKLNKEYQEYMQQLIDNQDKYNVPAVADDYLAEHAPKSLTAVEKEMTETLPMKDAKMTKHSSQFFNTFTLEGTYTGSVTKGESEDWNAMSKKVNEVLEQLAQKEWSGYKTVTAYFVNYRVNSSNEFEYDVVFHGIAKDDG
Data set [4] has as its target T3, ColQ1-CU. The data set is classed as binding, B. cereus. The note with it: intact protein HPLC-MS, overnight treatment.
Another data set addresses T4, MMP-2 (Homo sapiens, UniProt P08253).
T4 construct: catalytic domains of three human MMPs; purchased Sigma-Aldrich
Kind of data set: MMP inhibition assay, MMP-2. The data set is classed as biochemical. On the procedure: as §1, §2

A further data set concerns B. cereus AH187. The experiment in a line: B. cereus growth inhibition assay. The data set is classed as cell-based. The conditions noted are these: Bacillus cereus, AH187; BHI medium, 37 °C, 48 h, 200–3 μM; read-out: MIC50 (µM) AH187.
Data set [5] concerns the target T5, ColG-CU (Hathewaya histolytica, UniProt Q9X721). Kind of data set: biochemical. Format: biochemical, C. histolyticum. The conditions noted are these: 100 μM; read-out: Percent inhibition of ColG-CU.
The target of data set [6] is T5, ColG-CU. Format: biochemical, C. histolyticum. The conditions noted are these: rapid dilution.
In data set [7] the target is T3, ColQ1-CU. The experiment in a line: biochemical. Details: species or system B. cereus strain Q1.
In the next data set the target is TACE (ADAM-17) (Homo sapiens, UniProt P78536). The experiment in a line: Human off-target inhibition, TACE. The data set is classed as biochemical. The protocol: as §1
Sequence of TACE (ADAM-17) (P78536 215-824): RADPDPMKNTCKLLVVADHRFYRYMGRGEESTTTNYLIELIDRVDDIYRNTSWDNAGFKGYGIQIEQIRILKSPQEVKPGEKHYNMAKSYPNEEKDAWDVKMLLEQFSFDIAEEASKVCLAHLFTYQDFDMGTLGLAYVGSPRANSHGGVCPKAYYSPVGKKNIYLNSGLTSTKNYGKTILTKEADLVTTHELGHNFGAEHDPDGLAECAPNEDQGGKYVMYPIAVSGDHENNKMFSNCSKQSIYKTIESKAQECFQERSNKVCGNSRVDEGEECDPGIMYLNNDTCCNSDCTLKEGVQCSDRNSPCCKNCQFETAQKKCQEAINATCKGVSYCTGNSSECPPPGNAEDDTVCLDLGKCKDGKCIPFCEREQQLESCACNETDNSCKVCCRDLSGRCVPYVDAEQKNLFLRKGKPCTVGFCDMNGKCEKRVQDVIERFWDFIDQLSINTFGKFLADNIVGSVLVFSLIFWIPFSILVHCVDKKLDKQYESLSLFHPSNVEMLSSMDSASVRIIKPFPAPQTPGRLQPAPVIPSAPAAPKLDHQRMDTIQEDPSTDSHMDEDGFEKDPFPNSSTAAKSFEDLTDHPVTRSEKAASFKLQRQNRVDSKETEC
Another data set has as its target ColA-CU (Bacillus cereus, UniProt Q81BJ6). The data set is classed as biochemical, B. cereus. The conditions noted are these: rapid dilution.
In data set [8] the test system is B. cereus AH187 infection. Format: in vivo, Galleria mellonella. The conditions noted are these: for Survival of infected larvae vs control without inhibitor: 37 °C, 3 days.
Data set [9] has as its system Galleria mellonella larvae. Kind of data set: Galleria mellonella larvae treated with compound only in PBS. The data set is classed as in vivo. The conditions noted are these: no bacteria. The protocol:
Figure 8 Survival analysis of Galleria mellonella larvae treated with Bacillus cereus AH187 with and without 14 and tiludronate disodium. Each curve represents results of three independent experiments; the statistical difference between groups treated with 100, 50, and 25 μM of compound 14 and B. cereus AH187 and with the group treated only with B. cereus AH187 is p < 0.0001, p = 0.0039, and p = 0.0173, respectively. The statistical difference between groups treated with 100 μM tiludronate disodium and with B. cereus AH187 is p = 0.0032 (log-rank test). The survival rate for the larvae treated with compound 14 and tiludronate disodium in PBS was 100%.
G. mellonella larvae were purchased from a fishing store. Injections were carried out using an LA120 syringe pump (Landgraf Laborsysteme, Langenhagen, Germany) equipped with 1 mL Injekt-F tuberculin syringes (B. Braun, Melsungen, Germany) and Sterican 0.30 × […], 30 G × 1.5 needles (B. Braun). The larvae were divided into five groups depending on their treatment: (i) sterile PBS, (ii) no injection, (iii) only compound, (iv) BC AH187 bacterial suspension, and (v) BC AH187 bacterial suspension with compound. Larvae were incubated at 37 °C for 3 days and inspected twice daily. The total larvae used in all three experiments were 40 larvae per group.

Molecules are shown by their SMILES. In brackets after ≈: the same amount, converted by molar mass. Entries after “also recorded” stand apart in the source; their conditions may differ. Read-outs that look alike come from different tables or passages of the source.

Broadly, the IC50 is the concentration that inhibits the measured activity by half. Broadly, the inhibition is the share of the control response that was lost under treatment. As a reminder, the MIC50 is an inhibitory concentration at the 50% level, which refers to growth in some studies and to a panel of isolates in others.

T5 sequence (Q9X721 111-786): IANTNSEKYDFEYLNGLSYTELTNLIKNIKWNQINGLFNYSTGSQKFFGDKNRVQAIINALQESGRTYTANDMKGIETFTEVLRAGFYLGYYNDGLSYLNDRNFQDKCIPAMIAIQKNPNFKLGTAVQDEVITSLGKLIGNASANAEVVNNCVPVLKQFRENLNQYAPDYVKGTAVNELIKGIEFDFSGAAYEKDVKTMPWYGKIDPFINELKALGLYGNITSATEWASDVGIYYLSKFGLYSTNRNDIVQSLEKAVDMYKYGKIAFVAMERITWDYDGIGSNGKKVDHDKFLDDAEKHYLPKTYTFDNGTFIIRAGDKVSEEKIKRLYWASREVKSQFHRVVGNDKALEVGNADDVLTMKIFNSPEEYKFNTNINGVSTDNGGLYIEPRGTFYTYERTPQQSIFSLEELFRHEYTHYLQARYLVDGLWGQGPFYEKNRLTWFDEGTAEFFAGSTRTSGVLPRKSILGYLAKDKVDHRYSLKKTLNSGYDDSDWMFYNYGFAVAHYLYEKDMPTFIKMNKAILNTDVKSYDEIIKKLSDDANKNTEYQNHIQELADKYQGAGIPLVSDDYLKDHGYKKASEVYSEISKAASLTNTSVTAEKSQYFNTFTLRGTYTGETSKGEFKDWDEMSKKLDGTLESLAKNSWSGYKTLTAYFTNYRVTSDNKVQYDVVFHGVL
T1 sequence (Q46085 331-721 limits assumed): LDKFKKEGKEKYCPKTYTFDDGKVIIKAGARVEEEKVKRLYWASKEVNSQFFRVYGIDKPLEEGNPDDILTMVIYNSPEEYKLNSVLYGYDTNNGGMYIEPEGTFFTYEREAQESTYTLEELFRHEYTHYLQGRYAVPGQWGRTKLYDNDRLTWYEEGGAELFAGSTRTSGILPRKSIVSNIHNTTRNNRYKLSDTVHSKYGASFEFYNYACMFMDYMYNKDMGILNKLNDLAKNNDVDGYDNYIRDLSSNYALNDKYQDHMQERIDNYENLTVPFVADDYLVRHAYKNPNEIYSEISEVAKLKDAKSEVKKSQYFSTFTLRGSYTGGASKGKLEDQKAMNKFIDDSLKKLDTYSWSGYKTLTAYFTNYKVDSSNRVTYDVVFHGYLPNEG
T4 sequence (P08253 110-444 limits assumed): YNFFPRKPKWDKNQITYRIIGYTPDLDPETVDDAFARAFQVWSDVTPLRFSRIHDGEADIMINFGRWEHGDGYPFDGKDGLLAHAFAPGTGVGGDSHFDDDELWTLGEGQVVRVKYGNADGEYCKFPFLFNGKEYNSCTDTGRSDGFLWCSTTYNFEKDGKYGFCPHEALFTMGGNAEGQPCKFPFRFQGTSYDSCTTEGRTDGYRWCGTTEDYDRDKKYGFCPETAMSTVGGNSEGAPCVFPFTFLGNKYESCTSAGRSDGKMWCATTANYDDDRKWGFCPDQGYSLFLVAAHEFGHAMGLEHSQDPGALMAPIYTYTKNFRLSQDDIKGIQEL
Sequence of ColA-CU (Q81BJ6 93-764): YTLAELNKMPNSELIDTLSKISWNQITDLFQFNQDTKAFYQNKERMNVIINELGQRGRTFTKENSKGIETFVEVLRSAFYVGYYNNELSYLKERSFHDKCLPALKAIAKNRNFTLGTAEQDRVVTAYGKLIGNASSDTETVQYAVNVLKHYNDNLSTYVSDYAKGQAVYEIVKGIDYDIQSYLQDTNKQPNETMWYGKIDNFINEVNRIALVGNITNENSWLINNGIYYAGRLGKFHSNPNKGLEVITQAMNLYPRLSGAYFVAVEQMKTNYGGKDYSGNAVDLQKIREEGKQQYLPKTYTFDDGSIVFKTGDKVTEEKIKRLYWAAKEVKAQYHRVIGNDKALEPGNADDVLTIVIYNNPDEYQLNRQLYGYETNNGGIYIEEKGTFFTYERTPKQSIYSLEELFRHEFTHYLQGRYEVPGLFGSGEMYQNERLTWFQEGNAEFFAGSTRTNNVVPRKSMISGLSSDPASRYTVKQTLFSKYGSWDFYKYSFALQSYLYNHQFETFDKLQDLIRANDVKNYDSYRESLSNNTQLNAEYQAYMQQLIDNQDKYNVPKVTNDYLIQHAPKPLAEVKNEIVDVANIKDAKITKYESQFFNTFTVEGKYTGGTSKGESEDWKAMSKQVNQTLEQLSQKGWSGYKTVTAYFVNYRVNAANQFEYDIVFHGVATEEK

Regarding `O=P(O)(O)c1nc2cc(Cl)c(Cl)cc2nc1P(=O)(O)O` [Compound 13, (6,7-Dichloroquinoxaline-2,3-diyl)bis(phosphonic acid)], the IC50 is greater than 200 µM in the data set “in vitro”; 33 ± 11 µM on MMP-3; 79 ± 2 µM on MMP-2; 5.2 ± 0.4 µM against ColQ1-CU [7]; greater than 100 µM on TACE (ADAM-17). The values for the inhibition at 100 µM at ColH-PD [1], at ColG-CU [5] and at ColQ1-CU [7] (read-out: % Inhibition (ColQ1-CU) Mean) were 83 ± 9%, 68 ± 4% and 98 ± 1%, respectively. For the same compound, at ColH-PD [2], the “Reversibility of inhibition, ColH” value is given as “reversed compared to ColA”. The “Residual activity after rapid dilution” value at ColQ1-CU [3] (30 min preincubation at 10-fold IC50, 100-fold dilution) is on record as “less than 9%”. On ColQ1-CU [3] (rapid dilution), the “Reversibility of inhibition, ColQ1-CU” value is listed as “very slowly dissociating reversible binder”. In addition, on ColQ1-CU [4], the “Covalent modification of ColQ1-CU” value was “No molecular masses displayed a mass shift indicating a covalently bound inhibitor; also recorded: did not result in a covalent modification”. For the same compound, in the data set with B. cereus AH187, the MIC50 amounted to 200 µM (≈ 71.8 µg/mL). Further, the “Reversibility of inhibition, ColG” value at ColG-CU [6] was “rapidly reversible inhibitors”. Besides, the “Reversibility of inhibition, ColA-CU” value at ColA-CU was “only a minimal inhibition”. Moreover, the “Increase in survival of infected larvae” value in data set [8] (50 μM) is on record as 5%; in [8] (200 μM), “about 35%”. For the same compound, the “Survival of infected larvae vs control without inhibitor” value in [8] is “ameliorated the survival of the larvae in a dose-dependent manner”.
Consider `O=C(Nc1ccc(Cl)c(Cl)c1)c1ccc2nc(P(=O)(O)O)c(P(=O)(O)O)nc2c1` [Compound 14, (6-((3,4-Dichlorophenyl)carbamoyl)quinoxaline-2,3-diyl)bis(phosphonic acid)], for which the IC50 in “in vitro” is greater than 100 µM; on MMP-3, greater than 100 µM; against MMP-2, greater than 100 µM; against ColQ1-CU [7], 16 ± 1 µM; against TACE (ADAM-17), greater than 100 µM. Besides, the figures for the inhibition at 100 µM on ColH-PD [1] and on ColG-CU [5] were 96 ± 2% and 72 ± 3%, respectively. Besides, the MIC50 in the data set with B. cereus AH187 turned out to be 100 µM (≈ 47.8 µg/mL). Also, the “Survival rate of larvae treated with compound in PBS” value in data set [9] is on record as 100%. Besides, the “Effect on survival of infected larvae” value in [8] (25 μM) is “reduced effect”. Besides, the “Increase in survival of infected larvae” value in [8] (100 μM) is “around 50%”. The “Survival of infected larvae vs control without inhibitor” value in [8] is recorded as “ameliorated the survival of the larvae in a dose-dependent manner”.

For the origin of these results see paper PMC9574867, “Discovery and Characterization of Synthesized and FDA-Approved Inhibitors of Clostridial and Bacillary Collagenases” (Journal of Medicinal Chemistry, 2022).
